Data: patent US11648254B2 (Kumquat Biosciences Inc., priority 2021, dated 2023)
Where two headings read alike, the source gives them in different places.

Assays:
[1] = system: NCI-H1975 cells (EGFR T790M L858R); test: EGFR-SOS cellular inhibition assay (CellTiter-Glo, 3D); assay type: cell-based
[2] = molecular target: SOS1 (Homo sapiens (Human), UniProt Q07889); test: Ras-SOS interaction assay (HTRF); assay type: biochemical
[3] = system: MIA PaCa-2 cells (K-Ras G12C); test: Ras-SOS cellular growth inhibition assay (CellTiter-Glo, 3D); assay type: cell-based
Protocol: MIA PaCa-2 (ATCC CRL-1420) and NCI-H1792 (ATCC CRL-5895) cell lines comprise a G12C mutation can be used to assess Ras cellular signaling in vitro, e.g., in response to a subject compound of the present disclosure. […] Cell culture medium (comprising, for example, MIA PaCa-2 cells) is prepared with DMEM/Ham's F12 (e.g., with stable Glutamine, 10% FCS, and 2.5% Horse Serum. NCI-H1792 culture medium is prepared with RPMI 1640 (e.g., with stable Glutamine) and 10% FCS. A CellTiter-Glo (CTG) luminescent based assay (Promega) is used to assess growth of the cells, as a measurement of the ability of the compounds herein to inhibit Ras signaling in the cells. The cells (e.g., 800-1200 per well) are seeded in their respective culture medium in standard tissue culture-treated ultra-low attachment surface 96-well format plates (Corning Costar #3474). The day after plating, cells are treated with a dilution series (e.g., a 9 point 3-fold dilution series) of the compounds herein (e.g., approximately 125 μl final volume per well). Cell viability can be monitored (e.g., approximately 5 days later) according to the manufacturer's recommended instructions, where the CellTiter-Glo reagent is added (e.g., approximately 65 μl), vigorously mixed, covered, and placed on a plate shaker (e.g., approximately for 20 min) to ensure sufficient cell lysis prior to assessment of luminescent signal. The IC50 values are determined using the four-parameter fit. The resulting IC50 value is a measurement of the ability of the compounds herein to reduce cell growth of Ras-driven cells as representative tumor cells.

[4] = K-RasG13D utilized, read-out: IC50 inhibition of SOS
[5] = K-RasG13D, read-out: IC50 value against SOS1
[6] = Homo sapiens, 120 h, NCI-H1975, 3D proliferation, about 5 days, read-out: Bio-Cell-Prolif-3D (H1975 IC50)
[7] = Homo sapiens, NCI-H1975, EGFR T790M L858R, read-out: IC50 in inhibiting growth of NCI-H1975 cell line
[8] = Homo sapiens, MIA PaCa-2, 120 h, MIA PaCa-2, 3D proliferation, about 5 days, read-out: Bio-Cell-Prolif-3D (MiaPaca2 IC50)
[9] = Homo sapiens, MIA PaCa-2, MIA PaCa-2, read-out: IC50 in inhibiting MIA PaCa-2 cell growth

IC50 ([1]; NCI-H1975, 3D proliferation, about 5 days, read-out: Bio-Cell-Prolif-3D (H1975 IC50)) [nM]	IC50 ([1]; NCI-H1975, EGFR T790M L858R, read-out: IC50 in inhibiting growth of NCI-H1975 cell line) [nM]	IC50 [2, 4] [nM]	IC50 [2, 5] [nM]	IC50 ([3]; MIA PaCa-2, 3D proliferation, about 5 days, read-out: Bio-Cell-Prolif-3D (MiaPaca2 IC50)) [nM]	IC50 [1, 6] [nM]	IC50 [1, 7] [nM]	IC50 [3, 8] [nM]	IC50 [3, 9] [nM]	Compound
≤ 1000	< 500	< 100	< 50	≤ 1000					((R)-1,4-dioxan-2-yl)(4-(4-(((R)-1-(2-fluoro-3-(trifluoromethyl)-phenyl)ethyl)amino)-7-methoxy-2-methylpyrido[2,3-d]pyrimidin-6-yl)piperazin-1-yl)methanone [Compound 303]
		< 100	< 50		≤ 1000	< 500	≤ 1000	< 500	CCN1CCC(c2cc3c(N[C@H](C)c4cccc(C(F)(F)F)c4F)nc(C)nc3nc2OC)CC1 [Compound 288, (R)-6-(1-ethylpiperidin-4-yl)-N-(1-(2-fluoro-3-(trifluoromethyl)phenyl)ethyl)-7-methoxy-2-methylpyrido [2,3-d]pyrimidin-4-amine]
		< 100	< 50		≤ 1000	< 500	≤ 1000	< 500	Cc1nc(N[C@H](C)c2cccc(C(F)(F)C3CCN(C(C)C)CC3)c2)c2cc(N3CCN(C(C)C)CC3)c(Cl)nc2n1 [Compound 293, (R)-7-chloro-N-(1-(3-(difluoro(1-isopropylpiperidin-4-yl)methyl)phenyl)ethyl)-6-(4-isopropylpiperazin-1-yl)-2-methylpyrido[2,3-d] pyrimidin-4-amine]
		< 100	< 50		≤ 1000	< 500	≤ 1000		COc1nc2nc(C)nc(N[C@H](C)c3cccc(C(F)(F)F)c3F)c2cc1C1CCN(C(=O)CN(C)C)CC1 [Compound 302, (R)-2-(dimethylamino)-1-(4-(4-((1-(2-fluoro-3-(trifluoromethyl)phenyl)ethyl)amino)-7-methoxy-2-methylpyrido[2,3-d]pyrimidin-6-yl)piperidin-1-yl)ethan-1-one]
		< 100	< 50		≤ 1000	< 500	≤ 1000		COc1nc2nc(C)nc(N[C@H](C)c3cccc(C(F)F)c3F)c2cc1N1CCN(C2CCOCC2)CC1 [Compound 338, (R)-N-(1-(3-(difluoromethyl)-2-fluorophenyl)ethyl)-7-methoxy-2-methyl-6-(4-(tetrahydro-2H-pyran-4-yl)piperazin-1-yl)pyrido[2,3-d]pyrimidin-4-amine]
		< 100	< 50		≤ 1000	< 500	≤ 1000	< 500	COc1nc2ncnc(N[C@H](C)c3cccc(C(F)(F)C4CCN(C(C)C)CC4)c3)c2cc1C1CCN(C(C)C)CC1 [Compound 419, (R)—N-(1-(3-(difluoro(1-isopropylpiperidin-4-yl)methyl)phenyl)ethyl)-6-(1-isopropylpiperidin-4-yl)-7-methoxypyrido[2,3-d]pyrimidin-4-amine]
		< 100	< 50		≤ 1000	< 500	≤ 1000	< 500	C[C@H](O)C(F)(F)c1cccc([C@@H](C)Nc2ncnc3nc(Cl)c(C4(C#N)CC4)cc23)c1 [Compound 265, 1-(7-chloro-4-(((R)-1-(3-((S)-1,1-difluoro-2-hydroxypropyl)phenyl)ethyl)amino)pyrido[2,3-d]pyrimidin-6-yl) cyclopropane-1-carbonitrile]
		< 100	< 50		≤ 1000	< 500	≤ 1000	< 500	COc1nc2nc(C)nc(N[C@H](C)c3cccc(C(F)(F)C(C)(C)O)c3)c2cc1C1CCN(C(C)C)CC1 [Compound 212, (R)-1,1-difluoro-1-(3-(1-((6-(1-isopropylpiperidin-4-yl)-7-methoxy-2-methylpyrido[2,3-d]pyrimidin-4-yl)amino)ethyl)phenyl)-2-methylpropan-2-ol]
		< 100	< 50		≤ 1000	< 500	1000 to 10000		COCCOc1nc2nc(C)nc(N[C@H](C)c3cccc(C(F)F)c3F)c2cc1C1CCS(=N)(=O)CC1 (stereo partly drawn) [Compound 368, (R)-4-(4-((1-(3-(difluoromethyl)-2-fluorophenyl)ethyl)amino)-7-(2-methoxyethoxy)-2-methylpyrido[2,3-d]pyrimidin-6-yl)-1-iminohexahydro-1l6-thiopyran 1-oxide]
		< 100	< 50		≤ 1000		≤ 1000	< 500	Cc1nc(N[C@H](C)c2cccc(C(F)F)c2F)c2cc(C3CCS(=O)(=O)CC3)c(OCCO)nc2n1 [Compound 137, (R)-4-(4-((1-(3-(difluoromethyl)-2-fluorophenyl)ethyl)amino)-7-(2-hydroxyethoxy)-2-methylpyrido[2,3-d]pyrimidin-6-yl)tetrahydro-2H-thiopyran 1,1-dioxide]
		< 100	< 50		≤ 1000	< 500	≤ 1000	< 500	Cc1nc(N[C@H](C)c2cccc(C(F)F)c2F)c2cc(C3CCN(C(C)C)CC3)c(OC3CN(C)C3)nc2n1 [Compound 410, (R)-N-(1-(3-(difluoromethyl)-2-fluorophenyl)ethyl)-6-(1-isopropylpiperidin-4-yl)-2-methyl-7-((1-methylazetidin-3-yl)oxy)pyrido[2,3-d]pyrimidin-4-amine]
		< 100	< 50		≤ 1000	< 500	≤ 1000	< 500	COc1nc2nc(C)nc(N[C@H](C)c3cccc(C(F)(F)CCC4CN(C)C4)c3F)c2cc1C1(C#N)CC1 [Compound 177, (R)-1-(4-((1-(3-(1,1-difluoro-3-(1-methylazetidin-3-yl)propyl)-2-fluorophenyl)ethyl)amino)-7-methoxy-2-methylpyrido[2,3-d]pyrimidin-6-yl)cyclopropane-1-carbonitrile]
		< 100	< 50		≤ 1000	< 500	≤ 1000	< 500	Cc1nc(N[C@H](C)c2cccc(C(F)F)c2F)c2cc(C3CCS(=O)(=O)CC3)c(N(C)C)nc2n1 [Compound 143, (R)-4-(4-((1-(3-(difluoromethyl)-2-fluorophenyl)ethyl)amino)-7-(dimethylamino)-2-methylpyrido[2,3-d]pyrimidin-6-yl)tetrahydro-2H-thiopyran 1,1-dioxide]
		< 100	< 50		≤ 1000	< 500	≤ 1000	< 500	COc1nc2nc(C)nc(N[C@H](C)c3cccc(C(F)F)c3F)c2cc1C1CCN(C(C)C)CC1 [Compound 112, (R)-N-(1-(3-(difluoromethyl)-2-fluorophenyl)ethyl)-6-(1-isopropylpiperidin-4-yl)-7-methoxy-2-methylpyrido[2,3-d]pyrimidin-4-amine]
		< 100			≤ 1000		1000 to 10000		COc1nc2ncnc(N[C@H](C)c3cccc(C(F)F)c3F)c2cc1C1CCN(C(C)C)CC1 [Compound 189, (R)-N-(1-(3-(difluoromethyl)-2-fluorophenyl)ethyl)-6-(1-isopropylpiperidin-4-yl)-7-methoxypyrido[2,3-d]pyrimidin-4-amine]
		< 100	< 50		≤ 1000	< 500	≤ 1000	< 500	Cc1nc(N[C@H](C)c2cccc(C(F)F)c2F)c2cc(C3(C#N)CC3)c(O[C@H]3CCN(C)C3)nc2n1 [Compound 233, 1-(4-(((R)-1-(3-(difluoromethyl)-2-fluorophenyl)ethyl)amino)-2-methyl-7-(((S)-1-methylpyrrolidin-3-yl)oxy)pyrido [2,3-d]pyrimidin-6-yl)cyclopropane-1-carbonitrile]
		< 100	< 50		≤ 1000	< 500	≤ 1000	< 500	Cc1nc(N[C@H](C)c2cccc(C(F)(F)[C@H](C)O)c2F)c2cc(C3(C#N)CC3)c(Cl)nc2n1 [Compound 258, 1-(7-chloro-4-(((R)-1-(3-((S)-1,1-difluoro-2-hydroxypropyl)-2-fluorophenyl)ethyl)amino)-2-methylpyrido[2,3-d]pyrimidin-6-yl)cyclopropane-1-carbonitrile]
